US20170007617A1, “INTRAVENOUS FORMULATIONS OF A LATE SODIUM CURRENT INHIBITOR” (Gilead Sciences Drive, priority 2015, published 2017)
Converted amounts (≈) assume the structure as drawn. Like-named read-outs stand apart in the source and are kept apart here.

Columns and labels:
Format in all cases: physicochemical
[1] = Solubility of Compound (I) in water and solubilizing vehicles
[2] = Precipitation upon dilution of pre-concentrate into saline; details: pre-concentrated formulation of 40% TWEEN 80 and 60% PEG 400
[3] = Chemical stability in solution

- solubility ([1]; 1.6% TWEEN 80 and 2.4% PEG 400 in water, aqueous with cosolvent or surfactant or cyclodextrin, 1.6% TWEEN 80 and 2.4% PEG 400 in water, read-out: solubility): 1400 µg/mL (≈ 3.37 mM)
- solubility ([1]; 40% TWEEN 80 and 60% PEG 400, organic solvent or mixture, 40% TWEEN 80 and 60% PEG 400, read-out: solubility): > 100000 µg/mL
- amount of PEG 400 required to achieve 0.3 mg/mL ([1]; PEG 400/water co-solvent system, 0.3 mg/mL needed in infusion media for 15 mg dose): more than 30%
- solubility ([1]; about 0.4% TWEEN 80 and about 0.6% PEG 400 in water, aqueous with cosolvent or surfactant or cyclodextrin, about 0.4% TWEEN 80 and about 0.6% PEG 400 in water, read-out: solubility): 400 µg/mL (≈ 0.963 mM)
- solubility ([1]; oil-in-water emulsion with 20% oil, oil or lipid, oil-in-water emulsion with 20% oil, read-out: solubility): ≤ 5000 µg/mL
- solubility ([1]; safflower oil, oil or lipid, safflower oil, read-out: solubility in triglycerides): ~25000 µg/mL (≈ 60.2 mM)
- solubility ([1]; water with 3.6% Captisol, aqueous with cosolvent or surfactant or cyclodextrin, water with 3.6% Captisol, read-out: solubility): 1100 µg/mL (≈ 2.65 mM)
- solubility ([1]; water with 7% hydroxypropyl-β-cyclodextrin, aqueous with cosolvent or surfactant or cyclodextrin, water with 7% hydroxypropyl-β-cyclodextrin, read-out: solubility): 3200 µg/mL (≈ 7.7 mM)
- solubility ([1]; water with 12% Captisol, aqueous with cosolvent or surfactant or cyclodextrin, water with 12% Captisol, read-out: solubility): 3900 µg/mL (≈ 9.39 mM)
- solubility ([1]; water with 14% hydroxypropyl-β-cyclodextrin, aqueous with cosolvent or surfactant or cyclodextrin, water with 14% hydroxypropyl-β-cyclodextrin, read-out: solubility): 7400 µg/mL (≈ 17.8 mM)
- solubility ([1]; water with 28% hydroxypropyl-β-cyclodextrin, aqueous with cosolvent or surfactant or cyclodextrin, water with 28% hydroxypropyl-β-cyclodextrin, read-out: solubility): 18000 µg/mL (≈ 43.3 mM)
- solubility ([1]; water with 36% Captisol, aqueous with cosolvent or surfactant or cyclodextrin, water with 36% Captisol, read-out: solubility): 13700 µg/mL (≈ 33 mM)
- water solubility ([1]; water, listed as compound of formula (I)): about 0.01 mg/mL
- solubility ([1]; water, read-out: water solubility): 10 µg/mL (≈ 0.0241 mM)
- concentration needed to avoid precipitation upon dilution [2]: ≤ 30000 µg/mL
- chemical stability in solution [3]: chemically stable in solution
SMILES: O=C1c2cc(-c3ccc(OC(F)(F)F)cc3)ccc2OCCN1Cc1ncccn1 [Compound (I), 4-(pyrimidin-2-ylmethyl)-7-(4-(trifluoromethoxy)phenyl)-3,4-dihydrobenzo[f][1,4]oxazepin-5(2H)-one]
